How the values were obtained:
VEGF = experiment: Plasma VEGF in tumor-bearing mice (tumor angiogenesis model); assay type: in vivo; conditions: 7 days after plug, OLT1177 diet vs standard diet, FIG. 2A
Protocol: (§1) Tumor Angiogenesis Model. A mixture of Matrigel and B16F10 (2×10^5) was inoculated s.c. in the interscapular area of mice fed standard or OLT1177® diet. Following 7 days from the implantation, the plugs were removed, fixed in 4% paraformaldehyde, embedded in paraffin and sectioned (4 μm). Following, the sections were de-paraffinized, hydrated and stained with hematoxylin/eosin. Separate sections were subjected to heat-induced antigen retrieval (10 mM Citrate 0.05% Tween 20-pH 6.0) at 95° C. for 15 min. The sections were then placed in a humidified slide chamber, blocked for 1 h in 10% normal donkey serum (Jackson Immunologicals) and immunostained using an antibody for Von Willebrand factor (1:100, Millipore-Sigma, Burlington, MA) overnight at 4° C. for identification of new vessel formation. Anti-rabbit horseradish peroxidase enzyme (HRP) conjugated antibody (1:100, Jackson ImmunoResearch Laboratories, West Grove, PA) were used as secondary antibody for 2 hours at room temperature. […]
We next determined the ability of dapansutrile on inhibition of angiogenesis, an acquired ability of tumor cells to sustain a blood supply to nourish the growing tumor mass. […] After seven days to allow endothelial cell infiltration, plugs were removed, and plasma VEGF levels were determined.

G-CSF = experiment: Plasma G-CSF in B16F10 tumor-bearing mice; assay type: in vivo; conditions: OLT1177 diet vs standard diet, day 15, FIG. 1C
Protocol: (§2) Cytokine measurements. Cytokines in supernatants and cell lysates were measured by specific ELISA according to the manufacturer's instructions (DuoSet, R&D Systems, Minneapolis, MN).
(§3) C57BL/6J male mice, 6-8 weeks old (The Jackson Laboratory), were fed ad libitum with either a standard diet or a diet containing OLT1177® (dapansutrile) at a dose of 7.5 g per Kg of food for one week before subcutaneous instillation of a mixture of Matrigel and B16F10 cells (2×10^5) on the hind quarter of the mice. The dosage was approximately […] based on feed concentrations of 7.5 g/kg and food consumption of 4 g/day. These diets were continued after tumor implantation. Mice were sacrificed following 15 days from the plug instillation. Tissue and plasma were assessed after 15-day post-inoculation.

IL-17 = experiment: Intracellular cytokine staining for IL-17 in spleen-derived T cells of tumor-bearing mice; assay type: in vivo; conditions: OLT1177 diet vs standard diet, FIG. 1E
Protocol: as §3

[1] = tested on: M-MDSC (CD11b+Ly6G−Ly6Chi); experiment: Flow cytometry of M-MDSC in tumor-bearing mice; assay type: in vivo; conditions: tumor-bearing mice on dapansutrile diet, relative to non-tumor-bearing mice
Excerpt: (§4) Flow cytometry analysis was used to assess the effect of NLRP3 inhibition on the activation and expansion of MDSCs, key mediators of tumor-associated immunosuppression. Bone marrow, spleen, and lymph node-derived cells were isolated and analyzed for the two main MDSCs subtypes: polymorphonuclear MDSCs (PMN-MDSC) expressing CD11b^+Ly6G^+Ly6C^lo and monocytic MDSCs (M-MDSC) expressing CD11b^+Ly6G^−Ly6C^hi. […] In the spleen, the level of PMN-MDSCs in tumor-bearing mice was increased compared to non-tumor-bearing mice (FIG. 4B). However, in mice fed the dapansutrile diet, we observed a restoration of the PMN-MDSC population at the level observed in the non-tumor-bearing mice (FIGS. 4A-4B). […] Treatment with dapansutrile prevented the tumor-induced effect on M-MDSCs expansion, normalizing the population to the non-tumor-bearing mice level (FIGS. 4D-4F).

HUVEC = experiment: Angiogenesis assay (HUVEC) with melanoma conditioned media from 1205Lu cells; assay type: cell-based, human; conditions: MCM from 1205Lu cells treated with OLT1177 vs MCM, 5 hours on Matrigel; FIG. 2C
Protocol: Cell culture. 1205Lu human melanoma cells were cultured in RPMI. Each was supplemented with 10% FBS, 100 units/mL penicillin, 0.1 mg/ml streptomycin. Cells were maintained in a humidified 5% CO2 atmosphere at 37 C. Human metastatic melanoma cell line 1205Lu were plated in RPMI at 2.5×10^5 per well in a 24-wells plate and allowed to adhere overnight. The following day, media was replaced with fresh RPMI 10% FBS with or without OLT1177® (dapansutrile). For the induction of cytokine production IL-1α (20 ng/ml) was used. OLT1177® was added 30 minutes prior to stimulation. Supernatants were collected, in both unstimulated and stimulated conditions at 24 hours.
Angiogenesis assay (HUVEC). HUVEC cells were seeded on media with no growth factors overnight. Cells were plated onto Matrigel (Corning) coated wells at 8×10^4 cells per well in a 24 well plate. Cells were then incubated for 5 hours in the presence of HUVEC complete media (control), MCM or MCM in which 1205Lu cells were treated with OLT1177®. MCM was added without dilution. Media was then removed and matrigel was preserved in PFA4%. Pictures were taking at 40× and branching points were counted using the cross method.
The effects of dapansutrile on angiogenesis was determined in vitro using human umbilical vein endothelial cells (HUVEC). […]

[2] = tested on: Von Willebrand Factor stained endothelial cells; experiment: Tumor angiogenesis model: Von Willebrand Factor staining of B16F10 Matrigel plugs; assay type: in vivo, mice; conditions: 7 days after implantation, OLT1177 diet vs standard diet; FIG. 2B
Protocol: as §1, with “temperature. Sections were then incubated for 5-10 min with HRP substrate as directed by the manufacturer's instructions (NovaRED substrate, Vector Laboratories, Burlingame, CA). Nuclei counterstaining were achieved using Mayer's Hematoxylin counterstaining (Thermo Fisher scientific Waltham, MA).” for “temperature.”

NLRP3 inflammasome = NLRP3 inflammasome (Homo sapiens, UniProt Q96P20); conditions: reference 9; cited from earlier work
Sequence of NLRP3 inflammasome (Q96P20 whole entry): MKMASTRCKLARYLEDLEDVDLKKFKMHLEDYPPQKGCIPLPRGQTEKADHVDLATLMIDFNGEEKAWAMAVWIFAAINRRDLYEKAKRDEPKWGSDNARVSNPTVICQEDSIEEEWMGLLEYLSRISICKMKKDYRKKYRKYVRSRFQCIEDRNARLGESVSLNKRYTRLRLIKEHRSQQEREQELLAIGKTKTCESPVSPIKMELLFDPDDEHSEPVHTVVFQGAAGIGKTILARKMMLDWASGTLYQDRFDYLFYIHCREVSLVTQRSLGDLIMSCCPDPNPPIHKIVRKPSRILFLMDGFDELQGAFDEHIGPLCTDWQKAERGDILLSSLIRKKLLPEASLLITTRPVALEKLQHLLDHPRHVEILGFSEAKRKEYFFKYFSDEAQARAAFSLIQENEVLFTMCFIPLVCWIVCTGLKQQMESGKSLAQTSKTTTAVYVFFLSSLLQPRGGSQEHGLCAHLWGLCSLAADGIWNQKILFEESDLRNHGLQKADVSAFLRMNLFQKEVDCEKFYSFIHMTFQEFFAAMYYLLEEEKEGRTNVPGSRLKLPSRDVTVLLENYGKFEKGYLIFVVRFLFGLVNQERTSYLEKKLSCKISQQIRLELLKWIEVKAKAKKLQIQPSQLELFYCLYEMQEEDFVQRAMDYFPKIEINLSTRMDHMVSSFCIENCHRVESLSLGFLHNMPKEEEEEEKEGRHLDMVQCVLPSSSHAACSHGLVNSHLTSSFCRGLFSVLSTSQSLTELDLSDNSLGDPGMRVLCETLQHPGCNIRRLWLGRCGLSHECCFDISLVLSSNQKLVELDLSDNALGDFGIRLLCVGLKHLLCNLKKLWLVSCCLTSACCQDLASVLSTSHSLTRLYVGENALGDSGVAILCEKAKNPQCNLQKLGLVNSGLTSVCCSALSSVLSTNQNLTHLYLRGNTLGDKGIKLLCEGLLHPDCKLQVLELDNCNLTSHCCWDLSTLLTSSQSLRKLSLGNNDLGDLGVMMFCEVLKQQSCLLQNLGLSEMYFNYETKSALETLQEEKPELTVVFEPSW

[3] = tested on: PMN-MDSC (CD11b+Ly6G+Ly6Clo); experiment: Flow cytometry of PMN-MDSC in tumor-bearing mice; assay type: in vivo
Excerpt: as §4

B16F10-GFP cells = experiment: Metastasis model: i.v. B16F10-GFP cells, GFP+ cell counts in lung and liver; assay type: in vivo, mice; conditions: 21 days after i.v. B16F10-GFP, OLT1177 diet vs standard diet
Protocol: Metastasis Model. Metastasis formation was determined following tail intravenous (i.v.) injection of B16F10-GFP (1×10^6) cells in mice fed standard or OLT1177® diet. Before injection, the B16F10-GFP+ cells were sorted by flow cytometry and only the top brightest 10% cells were injected. Mice were sacrificed after 21 days from the cell injection and lung and liver were isolated and prepared for histology. Previous isolation, lungs were inflated with a solution containing 0.5% low melting agarose to avoid the tissue from collapsing. The presence of GFP-positive cell in the lung and liver of tumor bearing mice were performed by fluorescent microscopy. Tissue sections were stained with Alexa Fluor conjugated WGA, for membranes detection and DAPI, for nuclear stain. Images were acquired blindly and randomly across the tissue sections to obtain 7-10 images per tissue section. GFP positive cells were counted in each image and the results reported as number of GFP+ cells/field area (full chip field).
To determine whether dapansutrile reduces tissue invasion and metastasis, B16F10-GFP labeled cells were injected intravenously in mice fed with standard or OLT1177® diets.

IL-22 = experiment: Intracellular cytokine staining for IL-22 in spleen-derived T cells of tumor-bearing mice; assay type: in vivo; conditions: OLT1177 diet vs standard diet, FIG. 1D
Protocol: as §3

[4] = healthy subjects, reference 9; cited from earlier work
B16F10 cells = experiment: B16F10 melanoma Matrigel plug tumor growth in mice fed standard or OLT1177 diet; assay type: in vivo; conditions: OLT1177 diet 7.5 g/kg food (approx. 100 mg/kg/day) vs standard diet, 15 days after plug instillation; FIG. 1A
Protocol: as §3

IL-6 = experiment: Plasma IL-6 in B16F10 tumor-bearing mice; assay type: in vivo; conditions: OLT1177 diet vs standard diet, day 15, FIG. 1B
Protocol: as §2, §3

CS(=O)(=O)CCC#N [OLT1177®, 3-methanesulfonyl-propionitrile]
circulating VEGF levels (VEGF): significantly lower
plasma levels of G-CSF (G-CSF): significantly reduced
IL-17 (ICCS, spleen-derived T cells) (IL-17): No changes
M-MDSC population in bone marrow ([1]; FIG. 4D): normalizing
M-MDSC population in spleen ([1]; FIG. 4E): normalizing
M-MDSC population in lymph nodes ([1]; FIG. 4F): normalizing
HUVEC orientation (number of branching points / tubular-like structures) (HUVEC): significantly reduced
VWF stained endothelial cells in matrigel plugs (new vessel formation) [2]: reduced
inhibition of the NLRP3 inflammasome (NLRP3 inflammasome): selectively inhibit
PMN-MDSCs in lymph nodes ([3]; dapansutrile diet vs standard diet, FIG. 4C): reduction
PMN-MDSC population in bone marrow ([3]; tumor-bearing mice on dapansutrile diet, relative to non-tumor-bearing mice, FIG. 4A): restoration
PMN-MDSC population in spleen ([3]; tumor-bearing mice on dapansutrile diet, relative to non-tumor-bearing mice, FIG. 4B): restoration
reduction of number of GFP+ cells in the lungs (B16F10-GFP cells; p<0.0001, FIG. 3A): 66%
change in number of GFP+ cells in the liver (B16F10-GFP cells; p<0.001, FIG. 3B): −60%
IL-22 levels (ICCS, spleen-derived T cells) (IL-22): reduced
safety when orally administered [4]: safe
tumor volume (B16F10 cells): reduced
plasma levels of IL-6 (IL-6): significantly reduced
